Patent US20260374739A1, “SMALL MOLECULAR WEIGHT CHEMICAL COMPOUND TO ANTAGONIZE EPH-EPHRIN TETRAMERIZATION AND INHIBIT BIDIRECTIONAL SIGNALING” (THE BOARD OF REGENTS OF THE UNIVERSITY OF TEXAS SYSTEM, priority 2022, published 2026)
Values joined by “and” are separate entries in the source; they are usually repeats but may differ in a detail not shown here. Equal values may be shown once.

Tests used:
EphrinB2-EphB2 [1] = biological target: T1, EphrinB2-EphB2 (Homo sapiens, UniProt P29323); assay: Octet 80 sec association/500 sec dissociation, immobilized human EphrinB2-Fc binding to soluble human EphB2-His; settings: immobilized human EphrinB2, 25 nM soluble human EphB2; for EphB2 Inhibition Percent, Inhibition of Association ONLY: at 3.2 μM and 80 seconds; for EphB2 Inhibition Percent, Inhibition of Association-Dissociation: at 3.2 μM and 580 seconds
T1 construct: soluble human EphB1-His, EphB2-His, and EphB4-His ectodomains; commercially available human EphrinB1-Fc (EB1), EphrinB2-Fc (EB2), and EphrinB3-Fc (EB3) ectodomain proteins; purchased
T1 sequence (P29323 19-543 limits assumed): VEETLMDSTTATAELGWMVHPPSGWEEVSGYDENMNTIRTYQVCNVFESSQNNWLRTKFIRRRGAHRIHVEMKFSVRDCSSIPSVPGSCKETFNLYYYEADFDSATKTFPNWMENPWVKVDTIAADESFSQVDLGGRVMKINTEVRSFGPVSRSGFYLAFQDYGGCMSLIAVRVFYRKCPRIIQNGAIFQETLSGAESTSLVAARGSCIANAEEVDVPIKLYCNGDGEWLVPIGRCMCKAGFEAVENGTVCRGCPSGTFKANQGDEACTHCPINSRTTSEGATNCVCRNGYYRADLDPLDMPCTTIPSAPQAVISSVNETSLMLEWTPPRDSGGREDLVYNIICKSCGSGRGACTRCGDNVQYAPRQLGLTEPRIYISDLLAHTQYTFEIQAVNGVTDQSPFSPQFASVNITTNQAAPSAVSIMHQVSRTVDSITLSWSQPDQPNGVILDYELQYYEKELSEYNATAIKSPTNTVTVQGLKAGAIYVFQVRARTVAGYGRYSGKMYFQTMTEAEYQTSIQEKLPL
Procedure, shortened: (§1)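 EphrinB2-Fc captured on AHC biosensors, then soluble His-tagged EphB ectodomain (25 nM for % inhibition runs) associated 80 s and dissociated 500 s in PBS, 0.05% Tween-20, 1% DMSO ± compound. Compounds tested at 0.1–3.2 μM with a 10 μM max standard; IC50 from AUC of full traces or at 75 s and 135 s.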

EphrinB2-EphB1 = biological target: T2, EphrinB2-EphB1 (Homo sapiens, UniProt P54762); assay: Octet 80 sec association/500 sec dissociation, immobilized human EphrinB2-Fc binding to soluble human EphB1-His; settings: immobilized human EphrinB2, 25 nM soluble human EphB1; for EphB1 Inhibition Percent, Inhibition of Association ONLY: at 3.2 μM and 80 seconds; for EphB1 Inhibition Percent, Inhibition of Association-Dissociation: at 3.2 μM and 580 seconds
T2 construct: soluble human EphB1-His, EphB2-His, and EphB4-His ectodomains; commercially available human EphrinB1-Fc (EB1), EphrinB2-Fc (EB2), and EphrinB3-Fc (EB3) ectodomain proteins; purchased
T2 sequence (P54762 18-540 limits assumed): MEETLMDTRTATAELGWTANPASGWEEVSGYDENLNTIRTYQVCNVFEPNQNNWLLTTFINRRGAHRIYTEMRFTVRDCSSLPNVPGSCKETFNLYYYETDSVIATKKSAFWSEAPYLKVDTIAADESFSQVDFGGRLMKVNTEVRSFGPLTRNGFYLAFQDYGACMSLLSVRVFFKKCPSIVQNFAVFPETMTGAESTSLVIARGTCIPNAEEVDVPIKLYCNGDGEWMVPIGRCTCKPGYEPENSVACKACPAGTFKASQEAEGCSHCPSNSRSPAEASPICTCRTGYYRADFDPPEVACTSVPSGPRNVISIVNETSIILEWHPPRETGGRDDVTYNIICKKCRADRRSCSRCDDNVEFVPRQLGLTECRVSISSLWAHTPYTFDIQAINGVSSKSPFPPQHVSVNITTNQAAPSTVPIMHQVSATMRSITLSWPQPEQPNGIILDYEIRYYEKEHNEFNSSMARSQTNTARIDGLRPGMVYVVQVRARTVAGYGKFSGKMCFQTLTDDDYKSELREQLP
Procedure, shortened: as §1

EphrinB2-EphB2 [2] = biological target: T1, EphrinB2-EphB2; assay: Octet tetramerization inhibition, immobilized human EphrinB2 binding to 50 nM soluble human EphB2
EphrinB2-EphB4 = biological target: T3, EphrinB2-EphB4 (Homo sapiens, UniProt P54760); assay: Octet 80 sec association/500 sec dissociation, immobilized human EphrinB2-Fc binding to soluble human EphB4-His; settings: for EphB4 Inhibition Percent, Inhibition of Association ONLY: at 3.2 μM and 80 seconds; for EphB4 Inhibition Percent, Inhibition of Association ONLY / EphB4 Inhibition Percent, Inhibition of Association-Dissociation: immobilized human EphrinB2, 25 nM soluble human EphB4; for EphB4 Inhibition Percent, Inhibition of Association-Dissociation: at 3.2 μM and 580 seconds
T3 construct: soluble human EphB1-His, EphB2-His, and EphB4-His ectodomains; commercially available human EphrinB1-Fc (EB1), EphrinB2-Fc (EB2), and EphrinB3-Fc (EB3) ectodomain proteins; purchased
T3 sequence (P54760 16-539 limits assumed): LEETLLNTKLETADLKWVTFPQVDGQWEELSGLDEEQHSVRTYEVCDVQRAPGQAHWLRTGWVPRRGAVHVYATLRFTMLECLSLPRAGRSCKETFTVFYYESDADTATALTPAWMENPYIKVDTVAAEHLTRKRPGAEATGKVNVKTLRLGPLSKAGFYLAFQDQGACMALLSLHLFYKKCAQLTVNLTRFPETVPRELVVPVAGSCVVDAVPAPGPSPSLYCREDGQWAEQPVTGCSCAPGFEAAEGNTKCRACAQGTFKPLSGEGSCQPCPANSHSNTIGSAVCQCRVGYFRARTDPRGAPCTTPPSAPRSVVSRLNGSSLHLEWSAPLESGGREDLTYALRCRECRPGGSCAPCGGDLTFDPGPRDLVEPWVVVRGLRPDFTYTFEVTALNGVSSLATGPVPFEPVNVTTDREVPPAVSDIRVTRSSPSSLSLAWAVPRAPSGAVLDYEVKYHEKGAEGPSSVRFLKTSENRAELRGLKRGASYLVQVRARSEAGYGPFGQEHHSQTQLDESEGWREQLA
Procedure, shortened: as §1

[3] = Absolute AUC/IC50, Table A, EphrinB2-EphB2
[4] = Absolute Association IC50 (300 sec), Table A, EphrinB2-EphB2
[5] = Absolute Dissociation IC50 (450 sec), Table A, EphrinB2-EphB2
[6] = Relative AUC/IC50, Table A, EphrinB2-EphB2, compound 7: association only
[7] = Relative Association IC50 (300 sec), Table A, EphrinB2-EphB2
[8] = Relative Dissociation IC50 (450 sec), Table A, EphrinB2-EphB2

| SMILES | EphB2 Inhibition Percent, Inhibition of Association ONLY (EphrinB2-EphB2 [1]) | EphB2 Inhibition Percent, Inhibition of Association-Dissociation (EphrinB2-EphB2 [1]) | EphB1 Inhibition Percent, Inhibition of Association ONLY (EphrinB2-EphB1) | EphB1 Inhibition Percent, Inhibition of Association-Dissociation (EphrinB2-EphB1) | IC50 (EphrinB2-EphB2 [2]; [3]) [nM] | IC50 (EphrinB2-EphB2 [2]; [4]) [nM] | IC50 (EphrinB2-EphB2 [2]; [5]) [nM] | IC50 (EphrinB2-EphB2 [2]; [6]) [nM] | IC50 (EphrinB2-EphB2 [2]; [7]) [nM] | IC50 (EphrinB2-EphB2 [2]; [8]) [nM] | EphB4 Inhibition Percent, Inhibition of Association ONLY (EphrinB2-EphB4) | EphB4 Inhibition Percent, Inhibition of Association-Dissociation (EphrinB2-EphB4) | IC50 (EphrinB2-EphB2 [2]; tetramerization inhibitor IC50 (relative), association step, surmountable tetramer) [nM] | selectivity among EphrinB2-EphB1/B2/B4 (EphrinB2-EphB4; 3.2 μM) |
| --- | --- | --- | --- | --- | --- | --- | --- | --- | --- | --- | --- | --- | --- | --- |
| Oc1ccc(CN2CCN(c3ccccc3)CC2)c2cccnc12 [Compound 23, 8-hydroxy-5-((4-phenylpiperazin-1-ium-1-yl)methyl)quinolin-1-ium chloride] | 66.0% and 38.5% | 79.1% and 49% | 30.8% and 16.2% | 41.2% and 24.8% | > 1600 | > 1600 | > 1600 | > 1600 | > 1600 | > 1600 | 23.1% and 12.1% | 26.7% and 17.9% |  |  |
| Oc1ccc(CN2CCN(c3ccc(Br)cc3)CC2)c2cccnc12 [Compound 27, 5-((4-(4-bromophenyl)piperazin-1-ium-1-yl)methyl)-8-hydroxyquinolin-1-ium chloride] | 16.8% and 29.2% | 60.9% and 43.7% | 24.2% and 33.8% | 57.1% and 43.8% | > 1600 | > 1600 | > 1600 | 420 |  |  | 11.4/11.4% | 19.5% and 12.6% |  |  |
| Oc1ccc(CN2CCN(c3ccc(I)cc3)CC2)c2cccnc12 [Compound 32] | 63.9% | 78.2% | 24.5% | 40.5% | > 1600 | > 1600 | > 1600 | 790 | 1400 | 1000 | 33.8% | 42.5% |  |  |
| Oc1ccc(CN2CCN(c3ccc(Br)cn3)CC2)c2cccnc12 [Compound 34, 5-((4-(5-bromopyridin-2-yl)piperazin-1-ium-1-yl)methyl)-8-hydroxyquinolin-1-ium chloride] | 69.4% | 81.6% | 46.4% | 58.6% |  | 2820 | 2630 | 1700 | 2090 |  | 20.9% | 36.9% |  |  |
| O=[N+]([O-])c1ccc(N2CCN(Cc3ccc(O)c4ncccc34)CC2)cc1 [Compound 38, 8-hydroxy-5-((4-(4-nitrophenyl)piperazin-1-ium-1-yl)methyl)quinolin-1-ium chloride] | 54.3% | 72.1% | 24.8% | 43.2% | 2180 | 2290 | 1860 | 1200 | 1230 | 1470 | 9.6% | 17.5% |  |  |
| Nc1ccc(N2CCN(Cc3ccc(O)c4ncccc34)CC2)cc1 [Compound 39, 5-((4-(4-aminophenyl)piperazin-1-yl)methyl)quinolin-8-ol] | 33.9% and 31.2% | 46.4% and 45.6% |  | 16.9% and 8.0% | 3090 | 3020 | 2830 | 1700 | 2750 | 2250 | 0.4% and 0% | 6.9% and 5.5% | ~2000 | less action toward EphB4 and EphB1 but high specificity for EphB2 |
